Experimental data from patent US20070014748A1, “Urea compounds that promote desquamation” (L'OREAL, priority 2005, published 2007).

Tests used:
corneodesmosin = test: Degradation of corneodesmosin in a controlled environment chamber (varnished strippings, immunoblot); type: biochemical; settings: for percentages of residual corneodesmosin relative to the control: 5% active agent in base Arlacel/Myrj, 37° C., 70% relative humidity, 5 days, mean of 2 experiments, the lower the percentage, the higher the degradation
Description: (§1) Three properties were therefore studied: • The prodesquamating power, by the test of degradation of corneodesmosin in a controlled environment chamber with formulated products containing 5% active agent. […] P According to one of the aspects of the invention, the said compound of formula (I) has a corneodesmosin degrading effect which it stimulates.
The molecules are formulated in a neutral base Arlacel/Myrj. The products are in contact with varnished strippings under defined temperature, humidity and incubation time conditions. The corneodesmosin is assayed by immunodetection after incubation. It is studied on an immunoblot after electrophoretic separation and transfer onto a membrane. After specific labelling with the antibody G3619, it is visualized by chemiluminescence.
The Hydrovance® product, which is a mixture comprising N-(2-hydroxyethyl)urea marketed by the company National Starch, is compared with urea and with a control.
Rectangles of 3×3.5 cm^2 are cut out in varnished strippings made on the bottom of dry skin legs. They are treated with 42 mg of product (4 mg/cm^2) each. Controls and assays are carried out in parallel. The assays are incubated at 37° C. and 70% relative humidity for 5 days. The controls are kept for 5 days at −20° C. For each of the samples, acetone powders are made and weighed. The proteins are extracted with 100 μl of complete Laemmli buffer. They are assayed according to the Bradford method. The protein level of each sample is adjusted and will allow direct comparison of the various samples.
The proteins are separated by SDS-Page electrophoresis on 12% acrylamide gel. After transferring the proteins onto a PVDF membrane, the immunodetection is carried out with the anti-corneodesmosin antibody G3619 (Guy Serre) at 1/12 500 according to a conventional Western-blot technique. The visualization is performed by chemiluminescence. The bands detected by fluorSmax (Biorad) are quantified with the software quantity-one. […]
The results are expressed as percentages of residual corneodesmosin relative to the control −80° C. […]

[1] = system: acid proteases of the SC (stratum corneum); test: Activating potential on acid proteases of the stratum corneum (Enzchek Bodipyfl-casein fluorimetric assay); type: biochemical; settings: for acid protease activity compared with the control / duration of the activating effect on acid proteases: 1 and 2 M; for acid protease activity compared with the control: 0.1M acetic buffer pH 5.0, SC enzymatic extract; for duration of the activating effect on acid proteases: readings up to 24 h
Description: as §1
The property of activating certain acid proteases of the SC (stratum corneum) is evaluated. The measurement of this activity is carried out by fluorimetric assay with the aid of the Enzchek kit (Molecular Probes). This protocol uses a Bodipyfl-casein substrate which, when hydrolysed, releases fluorescence. The fluorescence released is directly proportional to the protease activity. It is read directly on a 96-well plate in a spectrofluorimeter at 750V at an excitation of 485 nm and an emission of 535 nm.
The results obtained with N-(2-hydroxyethyl)urea (compound according to the invention) are compared with those for urea.
The molecules are prepared at 0, 1, 2 and 4 M in 0.1M acetic buffer; pH 5.0. An enzymatic extract is prepared from acetone powders. 2 ml of PBS buffer +0.1% Triton X100 are brought into contact for 1 h in crushed ice with 200 mg of stratum corneum acetone powders. The mixture is then ground in a potter device and then centrifuged for 10 min at 15 000 g at 4° C. The supernatant is collected. The Enzchek substrate diluted 1/200 is incorporated into each solution containing the molecules. The assays are repeated three times.
The reaction mixture is prepared directly in a white plate. 10 μl of enzymatic extract are added to 200 μl of solution containing the substrate at 0, 1, 2 or 4M. The readings are carried out at t0, 1 2 h, t 16 h and t 24 h.

[2] = system: keratins and proteins of the SC; test: "Keratolytic" potential: solubilization of keratins and proteins of the stratum corneum (electrophoresis gel); settings: 2M in water +2% CHAPS; room temperature; 12.5% acrylamide gel, silver nitrate staining
Description: as §1
Urea is known for its denaturing activity on keratolytic proteins.
30 mg of acetone powders of stratum corneum of the bottom of the legs of volunteers are prepared and brought into contact with 3 ml of water +2% CHAPS (zwitterionic detergent) for 10 min at room temperature. The mixture is then ground in a potter device and centrifuged for 10 min at 15 000 g. The supernatant is removed. This method makes it possible to remove the very soluble keratins and proteins which would interfere with the interpretation of the results. The pellet is taken up in 300 μl of water+CHAPS and 20 μl are distributed into 10 Eppendorf tubes.
Each molecule to be studied is prepared at 2M in water +2% CHAPS.
200 μl of solution are mixed with 20 μl of extract of acetone powders. The assays are carried out in duplicate. A control with no reagent is performed in parallel. The reaction mixtures are incubated for 10 min at room temperature, they are ground in a potter device and then incubated for 50 min at room temperature. They are centrifuged for 10 min at 15 000 g. […]

Structure (SMILES)	percentages of residual corneodesmosin relative to the control (corneodesmosin)	acid protease activity compared with the control [1]	duration of the activating effect on acid proteases [1]	prodesquamating effect (corneodesmosin degradation) compared with urea (corneodesmosin; 5% in base Arlacel/Myrj)	acid protease activity ([1]; 4M, regardless of the time studied)	degradation of a protein substrate by the acid proteases of the SC ([1]; concentration of 0.5 to 2M, in particular 1M)	solubilization of SC proteins, gel band pattern compared with urea [2]
NC(N)=O [urea]	30%	slightly activating effect	up to two hours after the start of incubation	–	–	–	–
NC(=O)NCCO [Hydrovance, N-(2-hydroxyethyl)urea]	23%	large increase in activity	long-lasting	slightly higher effect than urea	marked decrease in activity	durably stimulates	distinguishable from urea by the appearance of low MW bands
